1 compound from patent US20220313620A1, “COMPOSITION FOR PREVENTING AND TREATING TAUOPATHIES” (SERVICIO ANDALUZ DE SALUD, priority 2019, published 2022) can be followed below.

SMILES strings stand for the structures.

For one assay, the system named is tau protein. The assay can be described thus: Hippocampal tau phosphorylation and total tau (western blot) after 10 days of oral drinking. Format: in vivo, Wistar rats. The following applies: oral by drinking 100 mg/Kg for 10 days, hippocampus. The procedure:
(§1) Animal experimental procedures were carried out in accordance with the European Communities directive 2010/63/EU and Spanish legislation (Real Decreto 53/2013). The protocol was approved by the Research and approved by Ethics Committee for Animal Experiments of the University of Malaga, Spain. In accordance with the ARRIVE guidelines, all efforts were made to minimize animal suffering and to reduce the number of animals used per experimental group. Chronic drinking experiments on Wistar rats were performed on 20 male rats. All adult rats, ageing 2 months (≈300 g of body weight), were provided by Charles River Laboratories (Barcelona, Spain). The animals were housed individually under a standard 12 h light-dark cycle in a room with temperature and humidity control. Water and rat chow pellets were provided ad libitum throughout the course of the present study.
(§2) Caromax®-D-Pinitol (3-O-methyl-d-chiro-inositol, DPIN, 98% purity) and Caromax®-D-Chiro-inositol (cis-1,2,3-trans-3,5,6-cyclohexanehexol, DCI) were provided by Euronutra SL (Málaga, Spain). They were dissolved in water to orally daily administration by drinking and/or gavage at dose of 100 mg/Kg of body weight (BW) in a 1 ml/kg of BW volume to Zucker and Wistar rats for 4 weeks (28 days) and 10 days, respectively (FIG. 1). During the drinking treatments, the concentration of inositols in the water were updated considering the daily increase of BW of the rats and the possible loss of water by evaporation.
(§3) Brain extract. Frozen brain samples (17 mg per sample) were homogenized in 1 mL of cold RIPA lysis buffer (50 mM Tris-HCl pH 7.4, 150 mM NaCl, 0.5% NaDOC, 1 mM EDTA, 1% Triton, 0.1% SDS, 1 mM Na3VO4, 1 mM NaF) supplemented with a protease cocktail (Hoffmann-Roche). The suspension was incubated for 2 hours at 4° C., followed by centrifugation at 12,000 rpm for 15 minutes at 4° C. The supernatant was transferred to a new clean centrifuge tube, and Bradford colorimetric method was used to determine the concentration of the total protein. The protein extracts were diluted 1:1 in loading buffer (DTT 2X) and heated for 5 minutes at 99° C. before being subjected to electrophoresis.
Western Blot Analysis. The tissue protein (10-15 μg) was subjected to electrophoresis on 4-12% Criterion XT Precast Bis-Tris gels (Bio-Rad, USA) for 30 minutes at 80V and 2 h at 150V. […] Bands were quantified by densitometric analysis using ImageJ software (Rasband, WS, ImageJ, US National Institutes of Health, Bethesda, Md., USA). […] The results were expressed as the protein/α-Adaptin ratio or phosphorylated/total protein ratio and normalized to the control group (Y axis represents ‘fold mean of the control values’).
(§4) All data are expressed as mean±SEM. […]

Assay [1] is described as follows: Plasma glucose levels after acute oral gavage. Format: in vivo. The conditions noted are these: oral 500 mg/kg, adult male Wistar rats, FIG. 3C. As for the experimental part: Experimental procedures with animals were carried out in strict accordance with the recommendations in the European Communities directive 2010/63/EU and Spanish legislation (Real Decreto 53/2013, BOE 34/11370-11421, 2013) regulating the care and use of laboratory animals. The protocol was approved by the Ethics Committee for Animal Experiments of the University of Malaga. All studies involving animals were reported in accordance with the ARRIVE guidelines for reporting experiments involving animals (Kilkenny, C., Browne, W. J., Cuthill, I. C., Emerson, M. & Altman, D. G. Improving Bioscience Research Reporting: The ARRIVE Guidelines for Reporting Animal Research. PLoS Biol 8, e1000412, https://doi.org/10.1371/journal.pbio.1000412 (2010). All efforts were made to minimize animal suffering and to reduce the number of animals used. The experiments were performed on 4-to-5-week-old male Wistar rats (Crl:Wl; Charles River Laboratories, Barcelona, Spain). The animals were under a standard 12 h light-dark cycle in a room with temperature and humidity control. All the rats were provided with water and commercially available rat standard pellet diet (STD) (3.02 kcal/g with 30 kcal % protein, 55 kcal % carbohydrates and 15 kcal % fat) ad libitum. […]

In assay [2] the test system is AMP-activated Protein Kinase (AMPK). Briefly: Hippocampal AMPK (western blot) after 10 days of oral drinking. Format: in vivo, Wistar rats. The conditions noted are these: oral by drinking 100 mg/Kg for 10 days, hippocampus, FIG. 10. As for the experimental part: as §1, with “study. […]” for “study.”
Western Blot Analysis. […] Bands were quantified by densitometric analysis using ImageJ software (Rasband, WS, ImageJ, US National Institutes of Health, Bethesda, Md., USA). […] The results were expressed as the protein/α-Adaptin ratio or phosphorylated/total protein ratio and normalized to the control group (Y axis represents ‘fold mean of the control values’).
as §4

The subject of assay [3] is glycogen synthase kinase-3β (GSK-3β). Briefly: Hippocampal GSK-3β phosphorylation and total level (western blot) after 10 days of oral administration. Format: in vivo, Wistar rats. The following applies: oral 100 mg/Kg for 10 days, hippocampus. As for the experimental part:
as §1, §2, §3
Western Blot Analysis. The tissue protein (10-15 μg) was subjected to electrophoresis on 4-12% Criterion XT Precast Bis-Tris gels (Bio-Rad, USA) for 30 minutes at 80V and 2 h at 150V. Proteins were transferred onto a 0.2 μm nitrocellulose membrane (Bio-Rad, USA) for 1 h at 80V by wet transfer equipment. The membrane was washed twice for 5 min in TBST (10 mM Tris-HCl, 150 mM NaCl, 0.1% Tween 20, pH 7.6) and blocked with 2% Bovine Serum Albumin-Tris Buffered Saline Tween 20 (BSA-TBST) for one hour at room temperature on a shaker platform. Subsequently, the membrane was incubated with respective primary antibodies overnight at 4° C. diluted in 2% BSA-TBST (Table 2 for additional information). The following day, the membrane was washed three times for 5 min with TBST. An appropriate HRP conjugated rabbit/mouse secondary antibody (Promega) was diluted 1:10000 in 2% BSA-TST and incubated with the membrane for 1 h shaking at room temperature. Finally, the membrane was washed as above and exposed to chemiluminescent reagent (Santa Cruz, Biotechnology Inc.) for 5 min. Stripping/reproving steps were used when necessary. Respective membrane bound protein was then visualized by Chemiluminescence (ChemiDoc Imaging System, Bio-Rad). Bands were quantified by densitometric analysis using ImageJ software (Rasband, WS, ImageJ, US National Institutes of Health, Bethesda, Md., USA). Normalization was performed using a reference protein of the same membrane, the α-Adaptin. The results were expressed as the protein/α-Adaptin ratio or phosphorylated/total protein ratio and normalized to the control group (Y axis represents ‘fold mean of the control values’).
All data are expressed as mean±SEM. Statistical analysis was undertaken for studies where each group size was of, at least, n=5. […]

As for `COC1[C@@H](O)[C@@H](O)C(O)[C@H](O)[C@H]1O` (stereo partly drawn) [DPIN, (1S,2S,4S,5R)-6-methoxycyclohexane-1,2,3,4,5-pentol], the “quantity of phospho-tau (AT8: Ser202, Thr205) compared with vehicle group” value with tau protein (FIG. 7A.1) is on record as “dropped to more than half”. Further, the “relative protein levels of total tau compared with vehicle group” value in the assay with tau protein (FIG. 7A.2) is given as “rise”. In assay [1], the “glucose levels in plasma” value was “maintenance”. For the same compound, the “kinase activation and total expression of AMPK” value in assay [2] was “No other changes”. The “GSK-3β serine-9 phosphorylation” value in assay [3] (FIG. 9A.1) is given as “no effect”. In addition, in assay [3] (FIG. 9A.2), the “GSK-3β tyrosine-216 phosphorylation” value is “no effect”. Besides, the “GSK-3β kinase activity (Ser9/Tyr216)” value in assay [3] (FIG. 9A.3) is “neither enhance nor inhibition”.
